Data taken from patent publication US20070105721A1, “Vinylogous 4-Hpyrones and their use in promoting plant growth” (priority 2003, published 2007).

Key:
Format in all cases: in vivo
[1] = system: Grand Rapids Lettuce seeds (Waltham strain); assay: Grand Rapids bioassay
Procedure: Grand Rapids Lettuce seeds (Waltham strain) were obtained from R.B. Dessert Seed Co. and were frozen in sachets until use. For testing of aqueous samples, 2.5 mL of test solution was applied to three replicates of 40-50 seeds in Petri dishes (90 mm) lined with two layers of Whatman No. 1 filter paper (7 cm). Millipore filtered water (MP water) was used as a control for each experiment and dilutions of each sample were used to ensure the optimum concentration range for activity. Fractions were reconstituted to their original concentration (before fractionation) and dilutions were made using MP water. Petri dishes were sealed with a layer of plastic wrap, and stored in a light proof container. All manipulations involving the seed were carried out in a dark room and germinants, based on the appearance of a radicle, were scored after 48 hours incubation.

Lawrencella davenportii = assay: Germination on moist filter paper in petri dishes; conditions: SW 1/10 dilution, compound 1a 10 ppb
Caulanthus heterophyllus = assay: Germination on moist filter paper in petri dishes; conditions: SW 1/10 dilution, compound 1a 10 ppb
Nicotiana attenuate = assay: Germination on moist filter paper in petri dishes; conditions: SW 1/10 dilution, compound 1a tested at 100 ppb
[2] = system: Allium ampeloprasum (leek) seeds; assay: Seed vigour enhancement; conditions: 100 ppb compound 1a; further: tested at 0.1 ppm
Procedure: (§1) For each species, five replicates of 20 seeds were placed on Petri dishes lined with seed germination paper. The Petri dishes were moistened with de-ionised water (control) or 100 ppb compound 1a. All species were incubated in constant darkness at 12/12 hr alternating temperatures of 7/18° C., 13/26° C. or 18/33° C. Germination was scored on radicle emergence and was recorded every 2-3 days until germination had ceased.

[3] = system: Petroselinium crispum (parsley) seeds; assay: Seed vigour enhancement; conditions: 100 ppb compound 1a; further: tested at 0.1 ppm
Procedure: as §1

[4] = system: Gompholobium tomentosum seeds; assay: Seed vigour enhancement (cumulative germination); conditions: compound 1a at 100 ppb; FIG. 3
Procedure: as §1

Hakea undulata seeds = assay: Seed vigour enhancement (cumulative germination); conditions: compound 1a at 100 ppb; FIG. 4
Procedure: as §1

Melaleuca carrii seeds = assay: Seed vigour enhancement (cumulative germination); conditions: compound 1a at 100 ppb; FIG. 3
Procedure: as §1

[5] = system: Acetosa vesicaria (ruby dock); assay: Weed germination enhancement; conditions: compound 1a at 100 ppb; further: tested at 0.1 ppm
Procedure: (§2) For each species, four replicates of 25 seeds were placed on Petri dishes lined with seed germination paper. The Petri dishes were moistened with de-ionised water (control) or 100 ppb compound 1a. All species were incubated in constant darkness at 12/12 hr alternating temperatures of 7/18° C., 13/26° C. or 18/33° C. Germination (radicle emergence) was recorded every 2-3 days until germination had ceased.

Avena fatua (wild oats) = assay: Weed germination enhancement; conditions: compound 1a at 100 ppb; mean ± standard error; further: tested at 0.1 ppm
Procedure: as §2

[6] = system: Brassica tournefortii (wild turnip); assay: Weed germination enhancement; conditions: compound 1a at 100 ppb; further: tested at 0.1 ppm
Procedure: as §2

Microlaena stipoides = assay: Germination enhancement of species used in rangeland pasture systems; conditions: 100 ppb compound 1a; constant darkness at 18° C.; mean ± standard error
Procedure: Three replicates of 25 seeds were placed on Petri dishes lined with seed germination paper. The Petri dishes were moistened with de-ionised water (control) or 100 ppb compound 1a. All species were incubated in constant darkness at 18° C. Germination (radicle emergence) was recorded every 2-3 days until germination had ceased.

Borya sphaerocephala = assay: Seed priming; conditions: 24 hr priming in 100 ppb compound 1a, re-drying and sowing; further: tested at 0.1 ppm
Procedure: (§3) For testing on Australian species, three replicates of 25 seeds were soaked in one of de-ionised DI water or 100 ppb compound 1a for 24 hr at 23° C. The seeds were re-dried at 23° C. for 24 hr and incubated on Petri dishes containing 0.7% (w/v) water agar in constant darkness at 18° C. Germination (radicle emergence) was recorded every 2-3 days until germination had ceased.

Centrolepis aristate = assay: Seed priming; conditions: 24 hr priming in 100 ppb compound 1a, re-drying and sowing; further: tested at 0.1 ppm
Procedure: as §3

Cherianthera preissiana = assay: Seed priming; conditions: 24 hr priming in 100 ppb compound 1a, re-drying and sowing; further: tested at 0.1 ppm
Procedure: as §3

Opercularia vaginate = assay: Seed priming; conditions: 24 hr priming in 100 ppb compound 1a, re-drying and sowing; further: tested at 0.1 ppm
Procedure: as §3

Phyllanthus calycinus = assay: Seed priming; conditions: 24 hr priming in 100 ppb compound 1a, re-drying and sowing; further: tested at 0.1 ppm
Procedure: as §3

[7] = system: Emmenanthe penduliflora seeds; assay: Duration of priming required to induce a germination response; conditions: priming in 100 ppb compound 1a, re-drying then incubation; FIG. 5
Procedure: To determine the duration of priming required to induce a germination response, three replicates of 20 seeds of Emmenanthe penduliflora were soaked in at 23° C. in a 100 ppb compound 1a solution for 1, 5, 10, 20, 40 or 80 min or 3, 6, 12, 24 or 48 hr. The seeds were re-dried for 24 hr at 23° C. and placed on Petri dishes lined with seed germination paper and moistened with de-ionised water. The Petri dishes were incubated at 18° C. in constant darkness. Germination (radicle emergence) was recorded every 2-3 days until germination had ceased.

[8] = system: intact or de-hulled Microlaena stipoides seeds; assay: Compound 1a as a replacement for de-hulling of grass species; conditions: 100 ppb compound 1a
Procedure: Intact or de-hulled seeds were employed for this experiment. Seeds were de-hulled manually by carefully extracting the seeds from the surrounding palea and lemma. Three replicates of 25 intact or de-hulled seeds were placed on Petri dishes lined with seed germination paper. The Petri dishes were moistened with de-ionised water (control) or 100 ppb compound 1a. All species were incubated in constant darkness at 18° C. Germination (radicle emergence) was recorded every 2-3 days until germination had ceased.

[9] = 26/13 ° C. 12/12 hr alternating
[10] = 33/18 ° C. 12/12 hr alternating

## Cc1c2ccocc-2oc1=O [Compound 1a, 3-Methyl-2H-furo[2,3-c]pyran-2-one]
[1]; 1/1 000 000 dilution of compound 1a 1 mg/L
  Grand Rapids germination: 60.9 (2.5) %
[1]; 1/10 000 dilution (of neat SW; of compound 1a 1 mg/L)
  Grand Rapids germination: 96.4 (0.6) %
[1]; 1/10 dilution (of neat SW; of compound 1a 1 mg/L)
  Grand Rapids germination: 98.4 (0.9) %
[1]; 1/100 000 dilution of compound 1a 1 mg/L
  Grand Rapids germination: 76.9 (1.5) %
[1]; 1/100 dilution (of neat SW; of compound 1a 1 mg/L)
  Grand Rapids germination: 98.4 (1.6) %
[1]; 1/100 dilution of the estimated content of neat smoke water (1 mg per 10 000 L)
  level at which compound 1a is active in promoting germination: 10^−10 mol/L
[1]; 1/1000 dilution (of neat SW; of compound 1a 1 mg/L)
  Grand Rapids germination: 97.0 (0.5) %
[1]; Neat (neat SW; compound 1a 1 mg/L), mean (SEM)
  Grand Rapids germination: 99.4 (0.6) %
[1]; at higher concentrations of 1a compared to the amount in smoke water
  inhibition of germination: no inhibition of germination is observed
[1]; compounds isolated from smoke, mean (SEM)
  Germination, Grand Rapids: 99.3 (0.7) %
Lawrencella davenportii
  Germination, Lawrencella davenportii: 56.3 (±8.5) b %
Caulanthus heterophyllus
  Germination, Caulanthus heterophyllus: 97.3 (±0.7) b %
Nicotiana attenuate
  Germination, Nicotiana attenuate: **44.4 (±1.9) b %
[2]; 18/7 ° C. 12/12 hr alternating, mean ± standard error
  Germination (%), Leek: 97.1 ± 0.9 a %
[2]; [9]
  Germination (%), Leek: 92.0 ± 4.3 a %
[2]; [10]
  Germination (%), Leek: 72.0 ± 6.3 b %
[3]; 18/7 ° C. 12/12 hr alternating
  Germination (%), Parsley: 27.0 ± 1.9 a %
[3]; [9]
  Germination (%), Parsley: 70 ± 5.6 b %
[3]; [10]
  Germination (%), Parsley: 29.0 ± 6.8 b %
[4]
  germination rate (cumulative germination), Gompholobium tomentosum: improved germination rate
Hakea undulata seeds
  germination rate (cumulative germination), Hakea undulata: improved germination rate
Melaleuca carrii seeds
  germination rate (cumulative germination), Melaleuca carrii: improved germination rate
[5]
  germination percentage, Acetosa vesicaria (ruby dock): 30.0 ± 7.6 b %
Avena fatua (wild oats)
  germination percentage, Avena fatua (wild oats): 38.0 ± 4.3 b %
[6]
  germination percentage, Brassica tournefortii (wild turnip): 92.0 ± 2.8 b %
Microlaena stipoides
  Germination, Microlaena stipoides: 78.3 ± 6.7 b
Borya sphaerocephala
  Germination (%), Borya sphaerocephala: 13.3 ± 4.8 b %
Centrolepis aristate
  Germination (%), Centrolepis aristate: 88.0 ± 0.0 b %
Cherianthera preissiana
  Germination (%), Cherianthera preissiana: 46.7 ± 4.8 b %
Opercularia vaginate
  Germination (%), Opercularia vaginate: 22.7 ± 7.4 b %
Phyllanthus calycinus
  Germination (%), Phyllanthus calycinus: 17.3 ± 1.3 b %
[7]
  duration of priming sufficient to induce germination promotion: 1 min
[8]; De-hulled seeds
  Germination (%), Microlaena stipoides: 100 ± 0.0 a %
[8]; Intact seeds
  Germination (%), Microlaena stipoides: 78.3 ± 6.3 b %
